# Literature values as cited in PMC8583936, “Machine Learning Assisted Approach for Finding Novel High Activity Agonists of Human Ectopic Olfactory Receptors” (International Journal of Molecular Sciences, 2021).
# Molecular target: T1, OR1A1 (Homo sapiens, UniProt Q9P1Q5)
# T1 sequence (Q9P1Q5 1-309): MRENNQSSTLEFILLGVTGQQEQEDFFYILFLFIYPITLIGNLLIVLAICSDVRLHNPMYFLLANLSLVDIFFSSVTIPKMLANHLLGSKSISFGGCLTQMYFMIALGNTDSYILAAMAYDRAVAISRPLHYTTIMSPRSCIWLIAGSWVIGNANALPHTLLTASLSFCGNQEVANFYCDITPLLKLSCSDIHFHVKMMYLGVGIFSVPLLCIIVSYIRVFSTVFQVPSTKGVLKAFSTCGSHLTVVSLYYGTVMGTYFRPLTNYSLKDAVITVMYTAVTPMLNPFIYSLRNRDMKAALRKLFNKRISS
# Conditions: Table S1; ref Supplement references [1]-[9] as printed after each odorant name; cited from earlier work
row,Compound,Class (agonist / non-agonist / conflicting info.) for OR1A1
1,CC(C)C(=O)O [Isobutyric acid],Non-agonist
2,CC(C)CC=O [Isovaleraldehyde],Non-agonist
3,CC(C)CC(=O)O [Isovaleric acid],Non-agonist
4,C=CC(C)(O)CCC=C(C)C (stereo not shown) [Linalool],Conflicting info.
5,CC(C)(O)CCCC1=CCC(C=O)CC1 (stereo not shown) [Lyral],Conflicting info.
6,Cc1occc(=O)c1O [Maltol],Non-agonist
7,CC(C)[C@@H]1CC[C@@H](C)CC1=O [Menthone],Conflicting info.
8,CSCCC=O [Methional],Non-agonist
9,CSCCCO [Methionol],Non-agonist
10,CSSc1ccoc1C [Methyl 2-methyl-3-furyl disulfide],Non-agonist
11,CCC(C)C(=O)OC (stereo not shown) [Methyl 2-methylbutyrate],Non-agonist
12,COC(=O)C=Cc1ccccc1 [Methyl cinnamate],Non-agonist
13,CSSCc1ccco1 [Methyl furfuryl disulfide],Conflicting info.
14,COC(=O)C(C)C [Methyl isobutyrate],Non-agonist
15,CCCSSSC [Methyl propyl trisulfide],Non-agonist
16,COC(=O)c1ccccc1O [Methyl salicylate],Conflicting info.
17,C=CC(=C)CCC=C(C)C [Myrcene],Non-agonist
18,CCCCCOC(C)=O [N-amyl acetate],Non-agonist
19,O=C(O)CCCCCCCC(=O)O [Nonanedioic acid],Non-agonist
20,CCCCCCCCCS [Nonanethiol],Agonist
21,CCCCCCCCCO [Nonanol],Non-agonist
22,CCCCCCCC=O [Octanal],Conflicting info.
23,CCCCCCCCO [Octanol],Conflicting info.

row,Compound,Class (agonist / non-agonist / conflicting info.) for OR1A1
1,CCCCCCCCOC(=O)CCCCCCC [Octyl octanoate],Conflicting info.
2,"C=C(C)c1ccc(C)cc1 [P,α-Dimethylstyrene]",Non-agonist
3,O=C(O)C=Cc1ccc(O)cc1 [P-Coumaric acid],Non-agonist
4,CCCCC=O [Pentanal],Non-agonist
5,CCCCCO [Pentanol],Conflicting info.
6,O=CCc1ccccc1 [Phenyl acetaldehyde],Non-agonist
7,CC(=O)Oc1ccccc1 [Phenyl acetate],Non-agonist
8,CC(=O)OCC=C(C)C [Prenyl acetate],Non-agonist
9,CCC=O [Propanal],Conflicting info.
10,CCCSSCCC [Propyl disulfide],Non-agonist
11,c1ccc2ncccc2c1 [Quinoline],Agonist
12,C=C(C)[C@H]1CC=C(C)CC1 [R-limonene],Agonist
13,CC(C)=CC1CC(C)CCO1 (stereo not shown) [Rose oxide],Non-agonist
14,CC1=CCC(C(C)(C)O)CC1 (stereo not shown) [Terpineol],Conflicting info.
15,CC(=O)OC(C)(C)C1CC=C(C)CC1 (stereo not shown) [Terpinyl acetate],Conflicting info.
16,CCC(=O)OC(C)(C)C [Tert-Butyl propionate],Non-agonist
17,SCc1cccs1 [Thenyl mercaptan],Non-agonist
18,O=C(O)CS [Thioglycolic acid],Non-agonist
19,C/C=C/c1ccc(OC)cc1 [Trans-anethole],Agonist
20,Cc1cnc(C)c(C)n1 [Trimethyl pyrazine],Non-agonist
21,CCCCC(=O)O [Valeric acid],Non-agonist
22,COc1cc(C(=O)O)ccc1O [Vanillic acid],Non-agonist
23,COc1cc(C=O)ccc1O [Vanillin],Non-agonist

# Same assay, conditions: Table S1; ref Supplement references [1]-[9] as printed after each odorant name; listed as (R)-limonene; cited from earlier work
row,Compound,Class (agonist / non-agonist / conflicting info.) for OR1A1
1,C=C(C)[C@H]1CC=C(C)CC1 [R-limonene],agonists

# Same assay, conditions: cited from earlier work
row,Compound,Class (agonist / non-agonist / conflicting info.) for OR1A1
1,COC(=O)c1ccccc1N [Methyl anthranilate],Non-agonist
2,COC(=O)c1ccccc1 [Methyl benzoate],Non-agonist
3,CCCC(=O)OC [Methyl butyrate],Non-agonist
4,CCCCCCCCC(=O)O [Nonanoic acid],Conflicting info.
5,CCCCCCCCS [Octanethiol],Conflicting info.
6,CCCCCCCC(=O)O [Octanoic acid],Non-agonist
7,CCC(=O)O [Propionic acid],Conflicting info.
8,CCCOC(=O)CCC [Propyl butyrate],Non-agonist

# Molecular target: T2, OR2W1 (Homo sapiens, UniProt Q9Y3N9)
# T2 sequence (Q9Y3N9 1-320): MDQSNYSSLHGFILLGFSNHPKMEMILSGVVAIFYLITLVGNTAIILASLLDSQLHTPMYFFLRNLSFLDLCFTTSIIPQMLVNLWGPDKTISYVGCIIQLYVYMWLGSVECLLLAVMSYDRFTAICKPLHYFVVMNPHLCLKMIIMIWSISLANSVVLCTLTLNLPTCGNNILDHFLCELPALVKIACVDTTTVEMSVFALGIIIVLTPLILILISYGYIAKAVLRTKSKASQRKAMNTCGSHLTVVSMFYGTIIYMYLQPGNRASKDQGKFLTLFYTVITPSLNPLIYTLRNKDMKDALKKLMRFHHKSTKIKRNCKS
# Conditions: Table S2; ref Supplement references [2]-[12] as printed after each odorant name; cited from earlier work
row,Compound,Class (agonist / non-agonist / antagonist / conflicting info.) for OR2W1
1,CC(C)C(=O)O [Isobutyric acid],Non-agonist
2,CC(C)CC=O [Isovaleraldehyde],Non-agonist
3,CC(C)CC(=O)O [Isovaleric acid],Antagonist
4,C=CC(C)(O)CCC=C(C)C (stereo not shown) [Linalool],Non-agonist
5,CC(C)(O)CCCC1=CCC(C=O)CC1 (stereo not shown) [Lyral],Non-agonist
6,Cc1occc(=O)c1O [Maltol],Non-agonist
7,CC(C)[C@@H]1CC[C@@H](C)CC1=O [Menthone],Non-agonist
8,CSCCC=O [Methional],Non-agonist
9,CSCCCO [Methionol],Non-agonist
10,CSSc1ccoc1C [Methyl 2-methyl-3-furyl disulfide],Non-agonist
11,CCC(C)C(=O)OC (stereo not shown) [Methyl 2-methylbutyrate],Non-agonist
12,COC(=O)C=Cc1ccccc1 [Methyl cinnamate],Agonist
13,CSSCc1ccco1 [Methyl furfuryl disulfide],Non-agonist
14,COC(=O)C(C)C [Methyl isobutyrate],Non-agonist
15,CCCSSSC [Methyl propyl trisulfide],Non-agonist
16,COC(=O)c1ccccc1O [Methyl salicylate],Agonist
17,C=CC(=C)CCC=C(C)C [Myrcene],Non-agonist
18,CCCCCOC(C)=O [N-amyl acetate],Agonist
19,O=C(O)CCCCCCCC(=O)O [Nonanedioic acid],Non-agonist
20,CCCCCCCCCS [Nonanethiol],Agonist
21,CCCCCCCCCO [Nonanol],Agonist
22,CCCCCCCC=O [Octanal],Agonist
23,CCCCCCCCO [Octanol],Agonist

row,Compound,Class (agonist / non-agonist / antagonist / conflicting info.) for OR2W1
1,CCCCCCCCOC(=O)CCCCCCC [Octyl octanoate],Antagonist
2,"C=C(C)c1ccc(C)cc1 [P,α-Dimethylstyrene]",Agonist
3,O=C(O)C=Cc1ccc(O)cc1 [P-Coumaric acid],Non-agonist
4,CCCCC=O [Pentanal],Non-agonist
5,CCCCCO [Pentanol],Conflicting info.
6,O=CCc1ccccc1 [Phenyl acetaldehyde],Non-agonist
7,CC(=O)Oc1ccccc1 [Phenyl acetate],Non-agonist
8,CC(=O)OCC=C(C)C [Prenyl acetate],Agonist
9,CCC=O [Propanal],Conflicting info.
10,CCCSSCCC [Propyl disulfide],Non-agonist
11,c1ccc2ncccc2c1 [Quinoline],Non-agonist
12,C=C(C)[C@H]1CC=C(C)CC1 [R-limonene],Agonist
13,CC(C)=CC1CC(C)CCO1 (stereo not shown) [Rose oxide],Non-agonist
14,CC1=CCC(C(C)(C)O)CC1 (stereo not shown) [Terpineol],Conflicting info.
15,CC(=O)OC(C)(C)C1CC=C(C)CC1 (stereo not shown) [Terpinyl acetate],Conflicting info.
16,CCC(=O)OC(C)(C)C [Tert-Butyl propionate],Non-agonist
17,SCc1cccs1 [Thenyl mercaptan],Non-agonist
18,O=C(O)CS [Thioglycolic acid],Non-agonist
19,C/C=C/c1ccc(OC)cc1 [Trans-anethole],Agonist
20,Cc1cnc(C)c(C)n1 [Trimethyl pyrazine],Non-agonist
21,CCCCC(=O)O [Valeric acid],Non-agonist
22,COc1cc(C(=O)O)ccc1O [Vanillic acid],Non-agonist
23,COc1cc(C=O)ccc1O [Vanillin],Conflicting info.

# Same assay, conditions: cited from earlier work
row,Compound,Class (agonist / non-agonist / antagonist / conflicting info.) for OR2W1
1,COC(=O)c1ccccc1N [Methyl anthranilate],Agonist
2,COC(=O)c1ccccc1 [Methyl benzoate],Non-agonist
3,CCCC(=O)OC [Methyl butyrate],Non-agonist
4,CCCCCCCCC(=O)O [Nonanoic acid],Agonist
5,CCCCCCCCS [Octanethiol],Agonist
6,CCCCCCCC(=O)O [Octanoic acid],Conflicting info.
7,CCC(=O)O [Propionic acid],Non-agonist
8,CCCOC(=O)CCC [Propyl butyrate],Non-agonist
